# In ChEMBL document CHEMBL4390657, “Discovery of arylbenzylamines as PDE4 inhibitors with potential neuroprotective effect” (Eur J Med Chem, 2019):
# Active and inactive are the calls of the source. The rule behind the calls is not given here.
# Legend:
# [1] = target: T1, 3',5'-cyclic-AMP phosphodiesterase 4B (Homo sapiens, UniProt Q07343); test: Inhibition of human full length N-terminal GST-tagged PDE4B1 expressed in baculovirus infected Sf9 cells using cAMP as substrate incubated for 1 hr by fluorescence polarization assay
# T1 sequence (Q07343 whole entry, the tested form may be a part): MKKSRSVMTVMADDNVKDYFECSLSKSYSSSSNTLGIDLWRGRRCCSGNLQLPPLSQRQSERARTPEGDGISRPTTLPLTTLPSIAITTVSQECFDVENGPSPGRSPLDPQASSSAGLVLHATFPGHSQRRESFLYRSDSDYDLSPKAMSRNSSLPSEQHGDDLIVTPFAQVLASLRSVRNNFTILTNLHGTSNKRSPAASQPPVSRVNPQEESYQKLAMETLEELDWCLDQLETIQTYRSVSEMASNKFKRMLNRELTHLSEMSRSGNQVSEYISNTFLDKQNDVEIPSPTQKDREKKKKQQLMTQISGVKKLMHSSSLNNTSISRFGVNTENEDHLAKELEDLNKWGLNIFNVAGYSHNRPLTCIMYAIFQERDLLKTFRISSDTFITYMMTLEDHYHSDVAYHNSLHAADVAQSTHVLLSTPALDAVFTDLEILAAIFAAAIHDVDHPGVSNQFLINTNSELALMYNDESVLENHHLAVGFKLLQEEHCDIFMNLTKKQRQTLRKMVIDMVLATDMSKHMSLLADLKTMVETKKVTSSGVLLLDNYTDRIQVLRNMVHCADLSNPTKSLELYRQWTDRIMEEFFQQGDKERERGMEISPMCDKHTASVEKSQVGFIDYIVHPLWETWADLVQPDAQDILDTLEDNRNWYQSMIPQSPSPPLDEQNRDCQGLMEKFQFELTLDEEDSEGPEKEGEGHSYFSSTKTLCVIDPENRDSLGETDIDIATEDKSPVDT
# [2] = Inhibition of human N-terminal GST-tagged PDE4D7 (2 to 748 residues) expressed in baculovirus infected Sf9 cells using cAMP as substrate after 1 hr by fluorescence polarization assay
# [3] = target: T1, 3',5'-cyclic-AMP phosphodiesterase 4B; test: Inhibition of human full length N-terminal GST-tagged PDE4B1 expressed in baculovirus infected Sf9 cells using cAMP as substrate incubated for 1 hr by fluorescence polarization assay relative to control
# [4] = AUC (0 to infinity) in Sprague-Dawley rat at 10 mg/kg, po by measured up to 24 hrs by LC-MS /MS analysis; type: ADME, organism-based; design: dose 10 mg/kg, time infinity, route oral; conditions: in vivo
# [5] = Cmax in Sprague-Dawley rat at 10 mg/kg, po by measured up to 24 hrs by LC-MS /MS analysis; type: ADME, organism-based; design: dose 10 mg/kg, route oral; conditions: in vivo
# [6] = Mean residence time (0 to infinity) in Sprague-Dawley rat at 10 mg/kg, po by measured up to 24 hrs by LC-MS /MS analysis; type: ADME, organism-based; conditions: in vivo
# [7] = AUC (0 to t) in Sprague-Dawley rat at 2 mg/kg, iv by measured up to 24 hrs by LC-MS /MS analysis; type: ADME, organism-based; design: dose 2 mg/kg, time < 24 hr, route intravenous; conditions: in vivo
# [8] = Cmax in Sprague-Dawley rat at 2 mg/kg, iv by measured up to 24 hrs by LC-MS /MS analysis; type: ADME, organism-based; design: dose 2 mg/kg, route intravenous; conditions: in vivo
# [9] = AUC (0 to infinity) in Sprague-Dawley rat at 2 mg/kg, iv by measured up to 24 hrs by LC-MS /MS analysis; type: ADME, organism-based; design: dose 2 mg/kg, time infinity, route intravenous; conditions: in vivo
# [10] = AUC (0 to t) in Sprague-Dawley rat at 10 mg/kg, po by measured up to 24 hrs by LC-MS /MS analysis; type: ADME, organism-based; design: time < 24 hr, dose 10 mg/kg, route oral; conditions: in vivo
# SH-SY5Y [11] = test: Cytotoxicity against human SH-SY5Y cells assessed as reduction in cell viability at 3.1 to 50 uM incubated for 48 hrs by MTT assay; type: cell-based
# [12] = Tmax in Sprague-Dawley rat at 10 mg/kg, po by measured up to 24 hrs by LC-MS /MS analysis; type: ADME, organism-based; conditions: in vivo
# [13] = Half life in Sprague-Dawley rat at 10 mg/kg, po by measured up to 24 hrs by LC-MS /MS analysis; type: ADME, organism-based; conditions: in vivo
# [14] = Mean residence time (0 to infinity) in Sprague-Dawley rat at 2 mg/kg, iv by measured up to 24 hrs by LC-MS /MS analysis; type: ADME, organism-based; conditions: in vivo
# [15] = Oral bioavailability in Sprague-Dawley rat at 10 mg/kg by measured up to 24 hrs by LC-MS /MS analysis; type: ADME, organism-based; conditions: in vivo
# [16] = Half life in Sprague-Dawley rat at 2 mg/kg, iv by measured up to 24 hrs by LC-MS /MS analysis; type: ADME, organism-based; conditions: in vivo
# [17] = Clearance in Sprague-Dawley rat at 2 mg/kg, iv by measured up to 24 hrs by LC-MS /MS analysis; type: ADME, organism-based; conditions: in vivo
# [18] = Tmax in Sprague-Dawley rat at 2 mg/kg, iv by measured up to 24 hrs by LC-MS /MS analysis; type: ADME, organism-based; conditions: in vivo
# SH-SY5Y [19] = test: Neuroprotective activity in human SH-SY5Y cells assessed as reduction in MPP+ induced cytotoxicity at 30 to 60 uM preincubated for 1 hr followed by MPP+ addition and measured after 48 hrs by MTT assay; type: functional, cell-based
# [20] = Volume of distribution at steady state in Sprague-Dawley rat at 2 mg/kg, iv by measured up to 24 hrs by LC-MS /MS analysis; type: ADME, organism-based; conditions: in vivo, read-out: Vdss
# SH-SY5Y [21] = test: Neuroprotective activity against MPP+-induced cell apoptosis in human SH-SY5Y cells assessed as effect on morphological changes at 30 to 60 uM preincubated for 1 hr followed by MPP+ addition and measured after 48 hrs by PI staining based inverse fluorescent microscopic analysis; type: functional
IC50 [1] [µM],IC50 [2] [µM],Structure (SMILES),other results
> 100,> 100,COc1ccc(CN[C@@H](Cc2c[nH]c3ccccc23)C(=O)O)cc1-c1cccc(Cl)c1,
0.79,1.28,Fc1cccc(-c2cc(CNc3cccnc3)cc3c2OCC3)c1,
> 10,> 10,COc1ccc(CN[C@@H](Cc2ccccc2)C(=O)O)cc1-c1cccc(Cl)c1,
0.94,1.31,Clc1cccc(-c2cc(CNc3cccnc3)cc3c2OCC3)c1,
> 10,> 10,COC(=O)c1ccc(NCc2ccc(OC)c(-c3cccc(Cl)c3)c2)cc1,
,0.3,COc1ccc(C2CNC(=O)C2)cc1OC1CCCC1 (centres undefined) [ROLIPRAM],
2.3,1.2,COc1ccc(CNc2cccnc2)cc1-c1cccc(Cl)c1,Imax [3]: 100%
> 10,> 10,COc1ccc(CN2CCCC(C)C2)cc1-c1cccc(Cl)c1 (centres undefined),
> 10,> 10,COc1ccc(CNc2ccc(F)cc2)cc1-c1cccc(Cl)c1,
3.5,1.8,COc1ccc(CN2CCOCC2)cc1-c1cccc(Cl)c1,
0.34,0.38,COc1ccc(CNc2cccnc2)cc1-c1cccc(F)c1,AUC(0-inf) [4]: 0.134 µg·h/mL; Cmax [5]: 0.0147 µg/mL; MRT inf [6]: 7.61 h; AUC(0-t) at 24 h [7]: 0.325 µg·h/mL; Cmax [8]: 0.701 µg/mL; Imax [3]: 93%; AUC(0-inf) [9]: 0.327 µg·h/mL; AUC(0-t) at 24 h [10]: 0.0844 µg·h/mL; Activity (SH-SY5Y [11]): Non-Toxic; Tmax [12]: 3.33 h; half-life [13]: 4.32 h; MRT inf [14]: 0.69 h; bioavailability [15]: 8.2%; half-life [16]: 1.26 h; clearance [17]: 6.18 L/h/kg; Tmax [18]: 4.8 min; Activity (SH-SY5Y [19]): Active; Vd [20]: 4.35 L/kg; Activity (SH-SY5Y [21]): Active
> 10,> 10,COc1ccc(NCc2ccc(OC)c(-c3cccc(Cl)c3)c2)cc1,
3.7,2.1,COc1ccc(CN2CCOCC2)cc1-c1cccc(F)c1,
> 100,> 100,COc1ccc(CNc2cccc(N(C)C)c2)cc1-c1cccc(Cl)c1,
0.17,0.04,O=C(Nc1ccccc1Cl)c1ccc(OC(F)F)c(OCC2CC2)c1,
> 10,> 10,COc1ccc(NCc2ccc(OC)c(-c3cccc(Cl)c3)c2)cn1,
4.1,2.1,FC(F)Oc1ccc(CN2CCOCC2)cc1-c1cccc(Cl)c1,
> 10,> 10,COc1ccc(CNc2ccccn2)cc1-c1cccc(Cl)c1,
0.68,1.2,COc1cccc(-c2cc(CNc3cccnc3)ccc2OC)c1,Imax [3]: 90%; Activity (SH-SY5Y [11]): Non-Toxic; Activity (SH-SY5Y [19]): Active; Activity (SH-SY5Y [21]): Active
> 100,> 100,COc1ccc(CN[C@H](C(=O)O)C(C)C)cc1-c1cccc(Cl)c1,
> 10,> 10,FC(F)Oc1ccc(CNc2cccnc2)cc1-c1cccc(Cl)c1,
> 10,> 10,COc1ccc(CN2CCC(O)CC2)cc1-c1cccc(Cl)c1,
> 10,> 10,COc1ccc(CNc2ccc(Cl)cc2)cc1-c1cccc(Cl)c1,
